ChEMBL document CHEMBL5247643, “Discovery and Characterization of BAY-805, a Potent and Selective Inhibitor of Ubiquitin-Specific Protease USP21” (J Med Chem, 2023)
Calls of active or inactive are those of the source. The calls are words filed in the database; no cut-off is given here.

Legend:
[1] = biological target: T1, Ubiquitin carboxyl-terminal hydrolase 21 (Homo sapiens) (UniProt Q9UK80); assay: Inhibition of human USP21 (209 to 563 residues) expressed in Escherichia coli BL21 (DE3) using ubiquitin rhodamine 110 as substrate assessed as remaining enzyme activity at 10 to 50 uM by fluorometric assay; details: dose 10-50 µM
T1 sequence (whole entry): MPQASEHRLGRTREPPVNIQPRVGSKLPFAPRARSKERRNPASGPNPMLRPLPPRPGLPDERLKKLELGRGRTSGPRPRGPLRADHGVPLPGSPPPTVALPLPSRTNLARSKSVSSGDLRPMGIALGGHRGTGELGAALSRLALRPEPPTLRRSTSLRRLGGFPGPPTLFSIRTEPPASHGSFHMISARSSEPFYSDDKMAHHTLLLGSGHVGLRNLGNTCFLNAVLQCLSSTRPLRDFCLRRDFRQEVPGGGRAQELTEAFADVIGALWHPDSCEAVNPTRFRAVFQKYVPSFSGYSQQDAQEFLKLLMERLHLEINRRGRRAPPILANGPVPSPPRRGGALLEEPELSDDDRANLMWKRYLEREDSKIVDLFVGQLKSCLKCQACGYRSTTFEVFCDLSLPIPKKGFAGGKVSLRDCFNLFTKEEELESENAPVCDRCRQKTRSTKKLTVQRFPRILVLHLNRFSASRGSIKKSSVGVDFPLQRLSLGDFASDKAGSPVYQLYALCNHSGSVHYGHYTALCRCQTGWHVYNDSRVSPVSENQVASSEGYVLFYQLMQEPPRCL

[2] = biological target: T2, Ubiquitin carboxyl-terminal hydrolase 4 (Homo sapiens) (UniProt Q13107); assay: Inhibition of human USP4 (1 to 932 residues) expressed in Sf9 cells using ubiquitin rhodamine 110 as substrate assessed as remaining enzyme activity at 10 to 50 uM by fluorometric assay; details: dose 10-50 µM
T2 sequence (whole entry): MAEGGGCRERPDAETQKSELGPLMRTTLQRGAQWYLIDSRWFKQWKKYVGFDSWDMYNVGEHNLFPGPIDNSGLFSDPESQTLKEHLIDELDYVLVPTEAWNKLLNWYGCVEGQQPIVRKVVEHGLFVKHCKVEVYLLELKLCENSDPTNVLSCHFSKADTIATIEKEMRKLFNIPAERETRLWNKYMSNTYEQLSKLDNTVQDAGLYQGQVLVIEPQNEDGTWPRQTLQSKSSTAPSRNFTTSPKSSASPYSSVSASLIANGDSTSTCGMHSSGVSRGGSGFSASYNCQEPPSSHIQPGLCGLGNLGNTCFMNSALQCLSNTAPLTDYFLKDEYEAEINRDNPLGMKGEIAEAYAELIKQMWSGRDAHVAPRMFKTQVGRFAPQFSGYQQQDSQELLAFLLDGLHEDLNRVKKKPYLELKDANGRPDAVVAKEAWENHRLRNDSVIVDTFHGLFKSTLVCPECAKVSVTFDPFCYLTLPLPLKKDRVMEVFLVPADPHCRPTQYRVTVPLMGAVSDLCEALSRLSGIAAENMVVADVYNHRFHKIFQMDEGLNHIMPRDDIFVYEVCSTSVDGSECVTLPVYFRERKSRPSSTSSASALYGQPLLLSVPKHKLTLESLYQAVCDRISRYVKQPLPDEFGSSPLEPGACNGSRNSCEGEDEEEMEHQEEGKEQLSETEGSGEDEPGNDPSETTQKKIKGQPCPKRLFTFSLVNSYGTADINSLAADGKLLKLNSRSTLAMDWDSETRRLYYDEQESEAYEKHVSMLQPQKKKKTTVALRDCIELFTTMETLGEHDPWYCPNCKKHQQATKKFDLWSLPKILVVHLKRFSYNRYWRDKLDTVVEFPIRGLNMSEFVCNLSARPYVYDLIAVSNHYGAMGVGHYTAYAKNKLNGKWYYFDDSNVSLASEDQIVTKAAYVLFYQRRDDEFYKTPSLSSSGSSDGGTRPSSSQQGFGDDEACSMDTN

[3] = biological target: Ubiquitin carboxyl-terminal hydrolase 9X (Homo sapiens) (UniProt Q93008); assay: Inhibition of human USP9X using ubiquitin rhodamine 110 as substrate at 10 to 50 uM by fluorometric assay; details: dose 10-50 µM
Ubiquitin carboxyl-terminal hydrolase 9X (Homo sapiens), sequence (Q93008 whole entry): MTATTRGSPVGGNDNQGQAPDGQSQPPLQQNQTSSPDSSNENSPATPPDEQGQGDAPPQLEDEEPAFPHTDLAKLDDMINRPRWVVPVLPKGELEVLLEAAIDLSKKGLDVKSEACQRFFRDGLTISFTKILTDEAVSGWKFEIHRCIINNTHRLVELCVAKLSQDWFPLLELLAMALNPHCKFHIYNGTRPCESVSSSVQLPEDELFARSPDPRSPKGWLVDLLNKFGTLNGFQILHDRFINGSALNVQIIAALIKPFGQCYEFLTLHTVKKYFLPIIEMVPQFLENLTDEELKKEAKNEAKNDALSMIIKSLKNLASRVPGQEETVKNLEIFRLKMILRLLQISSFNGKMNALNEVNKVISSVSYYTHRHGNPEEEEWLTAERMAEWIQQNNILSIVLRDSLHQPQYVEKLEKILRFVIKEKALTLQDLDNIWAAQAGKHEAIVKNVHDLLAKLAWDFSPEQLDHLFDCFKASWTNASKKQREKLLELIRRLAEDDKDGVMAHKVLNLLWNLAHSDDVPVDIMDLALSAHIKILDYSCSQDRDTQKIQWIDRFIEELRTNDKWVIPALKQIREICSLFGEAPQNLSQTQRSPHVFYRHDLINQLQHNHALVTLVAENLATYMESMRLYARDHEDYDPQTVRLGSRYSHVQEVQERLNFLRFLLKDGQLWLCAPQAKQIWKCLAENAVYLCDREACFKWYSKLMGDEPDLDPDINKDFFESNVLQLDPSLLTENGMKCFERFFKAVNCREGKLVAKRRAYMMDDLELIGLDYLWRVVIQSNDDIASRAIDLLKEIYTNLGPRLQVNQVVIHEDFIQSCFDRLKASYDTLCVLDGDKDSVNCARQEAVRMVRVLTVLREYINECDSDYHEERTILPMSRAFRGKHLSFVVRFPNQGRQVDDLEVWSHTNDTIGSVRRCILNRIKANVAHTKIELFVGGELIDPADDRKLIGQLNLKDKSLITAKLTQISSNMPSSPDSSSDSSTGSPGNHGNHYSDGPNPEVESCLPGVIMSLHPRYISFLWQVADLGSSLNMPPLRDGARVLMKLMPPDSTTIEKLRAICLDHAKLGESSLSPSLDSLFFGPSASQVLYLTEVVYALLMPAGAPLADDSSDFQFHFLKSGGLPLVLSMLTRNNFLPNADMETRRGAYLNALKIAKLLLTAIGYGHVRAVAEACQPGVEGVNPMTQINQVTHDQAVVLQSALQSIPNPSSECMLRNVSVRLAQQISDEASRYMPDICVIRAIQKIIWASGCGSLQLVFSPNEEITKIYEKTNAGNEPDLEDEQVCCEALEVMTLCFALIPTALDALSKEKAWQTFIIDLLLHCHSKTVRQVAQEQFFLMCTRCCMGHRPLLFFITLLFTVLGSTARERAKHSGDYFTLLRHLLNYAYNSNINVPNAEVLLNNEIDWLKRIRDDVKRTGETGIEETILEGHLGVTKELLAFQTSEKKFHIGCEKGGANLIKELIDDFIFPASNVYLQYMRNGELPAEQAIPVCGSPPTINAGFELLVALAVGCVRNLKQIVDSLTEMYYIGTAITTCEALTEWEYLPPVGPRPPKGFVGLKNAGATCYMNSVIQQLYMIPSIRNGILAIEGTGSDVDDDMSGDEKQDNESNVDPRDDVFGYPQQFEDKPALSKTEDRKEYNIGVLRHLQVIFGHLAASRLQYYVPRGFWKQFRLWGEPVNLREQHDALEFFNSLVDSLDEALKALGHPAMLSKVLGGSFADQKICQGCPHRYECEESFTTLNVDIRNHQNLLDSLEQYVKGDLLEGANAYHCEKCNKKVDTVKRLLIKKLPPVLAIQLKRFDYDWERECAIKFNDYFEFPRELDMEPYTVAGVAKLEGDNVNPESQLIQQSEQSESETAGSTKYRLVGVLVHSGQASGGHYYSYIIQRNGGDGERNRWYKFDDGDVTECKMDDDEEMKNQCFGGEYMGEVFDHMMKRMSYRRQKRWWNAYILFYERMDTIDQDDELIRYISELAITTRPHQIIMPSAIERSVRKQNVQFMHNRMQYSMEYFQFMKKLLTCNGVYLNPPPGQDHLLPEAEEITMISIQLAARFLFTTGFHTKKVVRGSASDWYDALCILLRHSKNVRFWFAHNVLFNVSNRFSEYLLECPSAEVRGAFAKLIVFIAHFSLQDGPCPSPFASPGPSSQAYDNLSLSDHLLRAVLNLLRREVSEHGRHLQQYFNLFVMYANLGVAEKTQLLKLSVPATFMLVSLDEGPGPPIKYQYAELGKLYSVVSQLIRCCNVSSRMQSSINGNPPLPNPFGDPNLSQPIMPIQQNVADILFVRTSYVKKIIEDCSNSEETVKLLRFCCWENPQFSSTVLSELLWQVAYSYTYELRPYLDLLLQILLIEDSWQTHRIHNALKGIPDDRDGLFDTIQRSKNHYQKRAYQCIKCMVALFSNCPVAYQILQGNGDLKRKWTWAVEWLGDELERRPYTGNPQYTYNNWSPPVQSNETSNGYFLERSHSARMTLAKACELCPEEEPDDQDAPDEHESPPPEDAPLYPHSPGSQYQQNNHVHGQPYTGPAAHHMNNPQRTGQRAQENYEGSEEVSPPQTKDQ

U2OS = assay: Antiproliferative activity against human U2OS cells assessed as reduction in cell viability up to 30 uM incubated for 72 hrs by CellTiter-Glo luminescent assay; format: functional, cell-based
A549 = assay: Antiproliferative activity against human A549 cells assessed as reduction in cell viability up to 30 uM incubated for 72 hrs by CellTiter-Glo luminescent assay; format: functional, cell-based
[4] = biological target: T2, Ubiquitin carboxyl-terminal hydrolase 4 (Homo sapiens); assay: Inhibition of human USP4 using ubiquitin rhodamine 110 as substrate at 10 to 50 uM by fluorometric assay; details: dose 10-50 µM
[5] = biological target: T3, Ubiquitin carboxyl-terminal hydrolase 2 (Homo sapiens) (UniProt O75604); assay: Inhibition of human USP2 using ubiquitin rhodamine 110 as substrate at 10 to 50 uM by fluorometric assay; details: dose 10-50 µM
T3 sequence (whole entry): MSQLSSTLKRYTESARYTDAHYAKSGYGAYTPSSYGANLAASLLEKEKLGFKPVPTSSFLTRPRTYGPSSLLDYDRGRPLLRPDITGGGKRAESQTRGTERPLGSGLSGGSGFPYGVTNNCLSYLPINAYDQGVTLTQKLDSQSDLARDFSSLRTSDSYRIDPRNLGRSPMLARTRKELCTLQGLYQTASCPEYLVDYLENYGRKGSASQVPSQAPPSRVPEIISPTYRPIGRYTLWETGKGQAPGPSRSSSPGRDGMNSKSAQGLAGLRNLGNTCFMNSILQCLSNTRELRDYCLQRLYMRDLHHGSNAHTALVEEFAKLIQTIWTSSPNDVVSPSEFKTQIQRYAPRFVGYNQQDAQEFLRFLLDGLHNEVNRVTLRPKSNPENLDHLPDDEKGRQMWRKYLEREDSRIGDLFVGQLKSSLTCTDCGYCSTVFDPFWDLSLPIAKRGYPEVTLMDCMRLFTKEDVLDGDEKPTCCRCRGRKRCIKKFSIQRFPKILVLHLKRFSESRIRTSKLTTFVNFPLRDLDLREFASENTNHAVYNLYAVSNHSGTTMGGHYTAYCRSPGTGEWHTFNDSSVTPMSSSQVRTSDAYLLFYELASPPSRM

MOLM-13 = assay: Antiproliferative activity against human MOLM-13 cells assessed as reduction in cell viability up to 30 uM incubated for 72 hrs by CellTiter-Glo luminescent assay; format: functional, cell-based

Structure (SMILES)	Activity [1] [%]	Activity [2] [%]	inhibition [3]	Activity (U2OS)	Activity (A549)	inhibition [4]	inhibition [5]	Activity (MOLM-13)
CC(NC(=O)C1CCCC1)C(=O)Nc1nnc(Cc2ccc([N+](=O)[O-])cc2)s1 (racemic)	< 50	< 50						
CC(C)C[C@H](NC(=O)C1(C(F)(F)F)CCCCC1)C(=O)Nc1nnc(Cc2ccc(C#N)cc2)s1			inactive	inactive	inactive	inactive	inactive	inactive
